# Results reported in patent US20140163023A1, “DIHYDROPYRROLO PYRIMIDINE DERIVATIVES AS MTOR INHIBITORS” (Cellzome Limited, priority 2011, published 2014).
# Tests used:
# PI3Kδ = molecular target: T1, PI3Kδ (Homo sapiens, UniProt O00329); assay: kinobeads assay, PI3Kδ; assay type: binding; details: 1:1 mix of Jurkat and Ramos cell lysates, read-out: Inhibition values (IC50 in μM) as determined in the kinobeads assay, PI3Kδ
# T1 construct: endogenous in cells; host or cells: Jurkat (ATCC TIB-152, clone E6-1) and Ramos (ATCC CRL-1596), 1:1 lysate mix
# T1 sequence (O00329 whole entry): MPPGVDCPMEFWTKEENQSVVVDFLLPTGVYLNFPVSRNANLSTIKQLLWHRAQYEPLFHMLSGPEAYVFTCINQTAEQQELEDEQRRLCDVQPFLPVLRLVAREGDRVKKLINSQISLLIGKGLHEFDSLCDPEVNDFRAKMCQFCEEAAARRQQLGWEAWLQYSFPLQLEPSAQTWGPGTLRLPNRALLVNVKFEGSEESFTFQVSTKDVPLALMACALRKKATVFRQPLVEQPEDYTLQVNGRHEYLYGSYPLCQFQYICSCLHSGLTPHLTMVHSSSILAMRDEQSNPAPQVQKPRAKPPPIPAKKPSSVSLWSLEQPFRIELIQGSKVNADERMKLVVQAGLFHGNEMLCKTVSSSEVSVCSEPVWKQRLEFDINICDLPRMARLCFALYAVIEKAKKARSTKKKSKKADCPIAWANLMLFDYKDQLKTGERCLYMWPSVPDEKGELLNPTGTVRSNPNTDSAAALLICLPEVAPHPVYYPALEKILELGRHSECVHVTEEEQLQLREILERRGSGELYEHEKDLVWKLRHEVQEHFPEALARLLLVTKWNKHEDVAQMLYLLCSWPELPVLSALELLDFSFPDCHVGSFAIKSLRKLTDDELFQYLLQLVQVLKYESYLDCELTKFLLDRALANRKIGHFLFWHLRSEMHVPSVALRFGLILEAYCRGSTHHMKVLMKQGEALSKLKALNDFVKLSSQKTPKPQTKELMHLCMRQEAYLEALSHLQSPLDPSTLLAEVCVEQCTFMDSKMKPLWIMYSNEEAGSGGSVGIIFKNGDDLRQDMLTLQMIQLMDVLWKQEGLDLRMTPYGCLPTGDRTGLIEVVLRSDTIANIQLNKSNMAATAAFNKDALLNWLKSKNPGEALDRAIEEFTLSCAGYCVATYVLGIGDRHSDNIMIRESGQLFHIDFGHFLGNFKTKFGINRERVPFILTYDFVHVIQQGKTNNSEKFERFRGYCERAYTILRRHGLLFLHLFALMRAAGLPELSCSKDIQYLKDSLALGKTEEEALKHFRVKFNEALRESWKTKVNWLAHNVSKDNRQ
# T1 sequence (P27986 whole entry partner): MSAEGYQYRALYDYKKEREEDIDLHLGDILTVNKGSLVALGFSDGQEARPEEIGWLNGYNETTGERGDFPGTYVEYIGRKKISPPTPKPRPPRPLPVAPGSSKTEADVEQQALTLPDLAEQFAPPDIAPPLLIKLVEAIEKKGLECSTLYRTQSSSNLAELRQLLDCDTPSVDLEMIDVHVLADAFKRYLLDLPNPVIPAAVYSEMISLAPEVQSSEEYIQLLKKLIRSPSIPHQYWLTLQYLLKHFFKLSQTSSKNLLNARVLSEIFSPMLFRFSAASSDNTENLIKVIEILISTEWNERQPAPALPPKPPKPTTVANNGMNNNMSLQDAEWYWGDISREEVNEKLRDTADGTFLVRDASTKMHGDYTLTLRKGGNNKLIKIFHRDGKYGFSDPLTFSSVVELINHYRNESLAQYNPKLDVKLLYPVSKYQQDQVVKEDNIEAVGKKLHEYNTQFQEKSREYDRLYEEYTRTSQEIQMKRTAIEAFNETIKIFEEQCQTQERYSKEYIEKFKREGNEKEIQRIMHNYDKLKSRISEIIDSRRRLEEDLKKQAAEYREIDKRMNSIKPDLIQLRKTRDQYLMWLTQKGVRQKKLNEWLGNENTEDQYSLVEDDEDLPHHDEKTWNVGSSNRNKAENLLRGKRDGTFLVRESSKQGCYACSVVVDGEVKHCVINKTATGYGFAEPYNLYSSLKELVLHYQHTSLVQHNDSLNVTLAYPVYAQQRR
# Protocol: (§1) The compounds of the present invention as described were tested in the mTOR kinobeads assay as described below. Briefly, test compounds (at various concentrations) and the affinity matrix (1:1 mixture of beads with immobilized phenylthiazole ligand 1 and beads with immobilized phenylmorpholin-chromen ligand; WO 2009/098021) were added to cell lysate aliquots and allowed to bind to the proteins in the lysate sample. After the incubation time the beads with captured proteins were separated from the lysate. Bound proteins were then eluted and the presence of mTOR, PI3Kα, PI3Kβ, PI3Kγ, PI3Kδ and DNA-dependent protein kinase (DNA-PK) was detected and quantified using a specific antibody in a dot blot procedure and the Odyssey infrared detection system. Dose response curves for individual kinases were generated and IC50 values calculated. Kinobeads assays for PI3 kinases (WO-A 2008/015013) and for kinase selectivity profiling (WO 2009/098021) have been previously described.
# (§2) Washing of Affinity Matrix
# (§3) The affinity matrix was washed two times with 15 ml of 1×DP buffer containing 0.2% NP40 (IGEPAL® CA-630, Sigma, #13021) and then resupended in 5.5 ml of 1×DP buffer containing 0.2% NP40 (10% beads slurry).
# (§4) 5×DP buffer: 250 mM Tris-HCl pH 7.4, 25% Glycerol, 7.5 mM MgCl2, 750 mM NaCl, 5 mM Na3VO4, filter the 5×-lysis buffer through 0.22 μm filter and store in aliquots at −80° C. The 5×DP buffer is diluted to 1×DP buffer containing 1 mM DTT and 25 mM NaF.
# (§5) Preparation of Test Compounds
# (§6) Stock solutions of test compounds were prepared in DMSO. In a 96 well plate 30 μl solution of diluted test compounds at 5 mM in DMSO were prepared. Starting with this solution a 1:3 dilution series (9 steps) was prepared. For control experiments (no test compound) a buffer containing 2% DMSO was used. Compound Pi-103 (Calbiochem catalogue number 528100) served as a positive control.
# (§7) Cell Culture and Preparation of Cell Lysates
# (§8) Jurkat cells (ATCC catalogue number TIB-152 Jurkat, clone E6-1) and Ramos cells (ATCC number CRL-1596) were grown in 1 litre Spinner flasks (Integra Biosciences, #182101) in suspension in RPMI 1640 medium (Invitrogen, #21875-034) supplemented with 10% Fetal Bovine Serum (Invitrogen) at a density between 0.15×10^6 and 1.2×10^6 cells/ml. Cells were harvested by centrifugation, washed once with 1×PBS buffer (Invitrogen, #14190-094) and cell pellets were frozen in liquid nitrogen and subsequently stored at −80° C.
# (§9) Cells were homogenized in a Potter S homogenizer in lysis buffer: 50 mM Tris-HCl, 0.8% NP40, 5% glycerol, 150 mM NaCl, 1.5 mM MgCl2, 25 mM NaF, 1 mM sodium vanadate, 1 mM DTT, pH 7.5. One complete EDTA-free tablet (protease inhibitor cocktail, Roche Diagnostics, 1873580) per 25 ml buffer was added. The material was dounced 10 times using a mechanized POTTER S, transferred to 50 ml falcon tubes, incubated for 30 minutes on ice and spun down for 10 min at 20,000 g at 4° C. (10,000 rpm in Sorvall SLA600, precooled). The supernatant was transferred to an ultracentrifuge (UZ)-polycarbonate tube (Beckmann, 355654) and spun for 1 hour at 100.000 g at 4° C. (33.500 rpm in Ti50.2, precooled). The supernatant was transferred again to a fresh 50 ml falcon tube, the protein concentration was determined by a Bradford assay (BioRad) and samples containing 50 mg of protein per aliquot were prepared. The samples were immediately used for experiments or frozen in liquid nitrogen and stored frozen at −80° C.
# (§10) Cell lysate (approximately 50 mg protein per plate) was thawed in a water bath at room temperature and then kept on ice. To the thawed cell lysate 1×DP 0.8% NP40 buffer containing protease inhibitors (1 tablet for 25 ml buffer; EDTA-free protease inhibitor cocktail; Roche Diagnostics 1873580) was added in order to reach a final protein concentration of 5 mg/ml total protein. For the kinobeads experiment a 1:1 mix of Jurkat and Ramos cell lysates was used. The diluted cell lysate was stored on ice. […]
# [1] = molecular target: T2, DNA-dependent protein kinase (DNA-PK) (Homo sapiens, UniProt P78527); assay: kinobeads assay, DNA-PK; assay type: binding; details: 1:1 mix of Jurkat and Ramos cell lysates, read-out: Inhibition values (IC50 in μM) as determined in the kinobeads assay, DNA-PK
# T2 construct: endogenous in cells; host or cells: Jurkat (ATCC TIB-152, clone E6-1) and Ramos (ATCC CRL-1596), 1:1 lysate mix
# Protocol: as §1, §2, §3, §4, §5, §6, §7, §8, §9, §10
# PI3Kγ = molecular target: T3, PI3Kγ (Homo sapiens, UniProt P48736); assay: kinobeads assay, PI3Kγ; assay type: binding; details: 1:1 mix of Jurkat and Ramos cell lysates, read-out: Inhibition values (IC50 in μM) as determined in the kinobeads assay, PI3Kγ
# T3 construct: endogenous in cells; host or cells: Jurkat (ATCC TIB-152, clone E6-1) and Ramos (ATCC CRL-1596), 1:1 lysate mix
# T3 sequence (P48736 whole entry): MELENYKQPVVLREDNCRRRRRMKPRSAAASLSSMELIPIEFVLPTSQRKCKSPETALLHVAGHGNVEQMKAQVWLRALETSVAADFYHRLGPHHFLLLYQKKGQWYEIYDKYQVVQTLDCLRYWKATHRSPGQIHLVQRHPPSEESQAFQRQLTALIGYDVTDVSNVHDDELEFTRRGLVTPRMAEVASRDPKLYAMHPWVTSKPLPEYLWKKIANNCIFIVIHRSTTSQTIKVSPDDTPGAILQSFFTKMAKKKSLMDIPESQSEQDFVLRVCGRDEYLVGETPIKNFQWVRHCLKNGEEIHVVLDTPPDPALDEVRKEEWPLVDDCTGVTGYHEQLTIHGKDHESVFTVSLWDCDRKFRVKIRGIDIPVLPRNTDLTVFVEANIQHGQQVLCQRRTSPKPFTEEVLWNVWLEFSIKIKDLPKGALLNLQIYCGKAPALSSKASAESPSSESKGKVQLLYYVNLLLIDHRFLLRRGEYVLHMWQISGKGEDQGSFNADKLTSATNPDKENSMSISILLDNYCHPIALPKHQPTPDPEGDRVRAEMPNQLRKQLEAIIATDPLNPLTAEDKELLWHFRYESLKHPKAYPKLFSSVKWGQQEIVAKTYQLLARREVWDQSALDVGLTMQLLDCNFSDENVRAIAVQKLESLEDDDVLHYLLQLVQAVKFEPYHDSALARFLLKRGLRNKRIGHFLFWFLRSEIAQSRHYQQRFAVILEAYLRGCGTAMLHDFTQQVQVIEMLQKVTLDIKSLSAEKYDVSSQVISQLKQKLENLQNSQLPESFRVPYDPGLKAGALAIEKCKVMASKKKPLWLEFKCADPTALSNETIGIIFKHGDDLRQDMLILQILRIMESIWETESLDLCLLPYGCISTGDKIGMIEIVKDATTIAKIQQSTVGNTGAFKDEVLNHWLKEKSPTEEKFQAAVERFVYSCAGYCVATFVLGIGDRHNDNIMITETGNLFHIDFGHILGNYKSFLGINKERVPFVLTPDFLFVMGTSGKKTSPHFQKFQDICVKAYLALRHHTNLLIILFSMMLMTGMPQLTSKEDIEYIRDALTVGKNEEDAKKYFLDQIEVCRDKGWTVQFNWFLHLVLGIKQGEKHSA
# Protocol: as §1, §2, §3, §4, §5, §6, §7, §8, §9, §10
# PI3Kβ = molecular target: T4, PI3Kβ (Homo sapiens, UniProt P42338); assay: kinobeads assay, PI3Kβ; assay type: binding; details: 1:1 mix of Jurkat and Ramos cell lysates, read-out: Inhibition values (IC50 in μM) as determined in the kinobeads assay, PI3Kβ
# T4 construct: endogenous in cells; host or cells: Jurkat (ATCC TIB-152, clone E6-1) and Ramos (ATCC CRL-1596), 1:1 lysate mix
# T4 sequence (P42338 whole entry): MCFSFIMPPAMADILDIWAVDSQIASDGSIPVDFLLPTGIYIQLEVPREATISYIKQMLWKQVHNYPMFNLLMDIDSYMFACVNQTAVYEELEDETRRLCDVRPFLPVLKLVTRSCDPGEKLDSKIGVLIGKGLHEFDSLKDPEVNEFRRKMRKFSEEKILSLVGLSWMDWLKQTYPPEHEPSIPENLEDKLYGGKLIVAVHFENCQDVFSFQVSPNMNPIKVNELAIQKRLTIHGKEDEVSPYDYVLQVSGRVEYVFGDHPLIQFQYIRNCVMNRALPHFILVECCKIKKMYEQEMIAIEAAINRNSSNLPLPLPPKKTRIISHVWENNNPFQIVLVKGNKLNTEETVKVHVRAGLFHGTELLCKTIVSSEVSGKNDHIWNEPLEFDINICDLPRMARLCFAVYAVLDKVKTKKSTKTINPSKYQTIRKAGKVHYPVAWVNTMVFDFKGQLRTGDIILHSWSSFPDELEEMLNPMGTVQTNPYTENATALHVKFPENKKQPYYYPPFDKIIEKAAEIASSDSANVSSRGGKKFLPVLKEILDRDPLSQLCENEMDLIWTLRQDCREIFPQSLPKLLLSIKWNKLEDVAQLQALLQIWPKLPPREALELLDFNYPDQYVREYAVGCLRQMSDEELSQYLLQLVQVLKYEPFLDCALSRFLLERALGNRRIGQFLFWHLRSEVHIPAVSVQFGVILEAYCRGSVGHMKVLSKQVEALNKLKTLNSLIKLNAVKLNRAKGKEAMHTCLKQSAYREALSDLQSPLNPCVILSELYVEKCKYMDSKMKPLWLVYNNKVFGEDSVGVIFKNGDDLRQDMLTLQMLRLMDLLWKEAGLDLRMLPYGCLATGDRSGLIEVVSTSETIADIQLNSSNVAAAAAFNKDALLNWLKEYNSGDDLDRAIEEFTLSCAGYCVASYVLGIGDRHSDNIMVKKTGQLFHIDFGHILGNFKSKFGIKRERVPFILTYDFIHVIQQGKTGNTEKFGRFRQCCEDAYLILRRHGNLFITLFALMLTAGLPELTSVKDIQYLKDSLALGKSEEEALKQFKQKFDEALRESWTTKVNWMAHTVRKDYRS
# T4 sequence (P27986 whole entry partner): as the sequence (P27986 whole entry partner) above
# Protocol: as §1, §2, §3, §4, §5, §6, §7, §8, §9, §10
# PI3Kα = molecular target: T5, PI3Kα (Homo sapiens, UniProt P42336); assay: kinobeads assay, PI3Kα; assay type: binding; details: 1:1 mix of Jurkat and Ramos cell lysates, read-out: Inhibition values (IC50 in μM) as determined in the kinobeads assay, PI3Kα
# T5 construct: endogenous in cells; host or cells: Jurkat (ATCC TIB-152, clone E6-1) and Ramos (ATCC CRL-1596), 1:1 lysate mix
# T5 sequence (P42336 whole entry): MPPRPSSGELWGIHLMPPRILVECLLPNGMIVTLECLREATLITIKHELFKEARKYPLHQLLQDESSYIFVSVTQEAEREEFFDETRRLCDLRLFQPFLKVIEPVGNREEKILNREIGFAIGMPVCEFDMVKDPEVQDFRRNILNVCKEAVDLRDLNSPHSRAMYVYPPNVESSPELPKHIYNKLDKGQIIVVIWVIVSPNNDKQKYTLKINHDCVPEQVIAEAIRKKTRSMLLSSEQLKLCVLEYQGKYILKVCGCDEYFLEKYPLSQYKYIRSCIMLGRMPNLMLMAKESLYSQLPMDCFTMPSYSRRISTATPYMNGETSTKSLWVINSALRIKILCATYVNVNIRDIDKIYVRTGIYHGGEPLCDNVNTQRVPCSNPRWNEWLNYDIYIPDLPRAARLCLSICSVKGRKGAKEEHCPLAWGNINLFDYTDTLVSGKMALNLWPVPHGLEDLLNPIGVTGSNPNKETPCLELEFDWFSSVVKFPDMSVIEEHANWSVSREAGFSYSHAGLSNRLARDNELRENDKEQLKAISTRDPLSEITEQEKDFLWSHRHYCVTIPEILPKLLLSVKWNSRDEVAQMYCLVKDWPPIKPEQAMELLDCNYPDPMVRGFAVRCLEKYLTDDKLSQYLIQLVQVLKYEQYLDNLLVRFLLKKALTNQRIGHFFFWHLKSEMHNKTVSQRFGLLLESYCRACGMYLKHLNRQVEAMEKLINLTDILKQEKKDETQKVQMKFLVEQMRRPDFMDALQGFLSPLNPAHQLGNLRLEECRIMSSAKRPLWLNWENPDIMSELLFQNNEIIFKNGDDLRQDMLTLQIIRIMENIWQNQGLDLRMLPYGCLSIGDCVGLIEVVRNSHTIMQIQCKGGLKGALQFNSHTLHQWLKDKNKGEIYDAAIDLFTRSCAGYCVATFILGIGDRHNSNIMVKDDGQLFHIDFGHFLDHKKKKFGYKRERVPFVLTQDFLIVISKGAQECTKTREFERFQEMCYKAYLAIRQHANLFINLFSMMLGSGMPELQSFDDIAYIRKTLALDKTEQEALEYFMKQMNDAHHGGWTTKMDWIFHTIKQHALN
# T5 sequence (P27986 whole entry partner): as the sequence (P27986 whole entry partner) above
# Protocol: as §1, §2, §3, §4, §5, §6, §7, §8, §9, §10
# mTOR = molecular target: T6, mTOR (Homo sapiens, UniProt P42345); assay: mTOR kinobeads assay (competition binding in cell lysate, dot blot detection); details: 1:1 mix of Jurkat and Ramos cell lysates, read-out: Inhibition values (IC50 in μM) as determined in the kinobeads assay, mTor
# T6 construct: endogenous in cells; host or cells: Jurkat (ATCC TIB-152, clone E6-1) and Ramos (ATCC CRL-1596), 1:1 lysate mix
# Protocol: Determination of the Effect of the Compounds According to the Invention on mTOR
# as §1, §2, §3, §4, §5, §6, §7, §8, §9
# as §10, with “used.” for “used. The diluted cell lysate was stored on ice.”
SMILES,IC50 (PI3Kδ) [µM],IC50 [1] [µM],IC50 (PI3Kγ) [µM],IC50 (PI3Kβ) [µM],IC50 (PI3Kα) [µM],IC50 (mTOR) [µM]
"C[C@H]1COCCN1c1nc2c(c(-c3ccc(NC(=O)NC4CC4)cc3)n1)CN(C(=O)CN)C2 [Example 28, (S)-1-(4-(6-(2-aminoacetyl)-2-(3-methylmorpholino)-6,7-dihydro-5H-pyrrolo[3,4-d]pyrimidin-4-yl)phenyl)-3-cyclopropylurea]",10 to 100,> 100,10 to 100,10 to 100,10 to 100,1 to 10
"C[C@H]1COCCN1c1nc2c(c(-c3ccc(NC(=O)NC4CC4)cc3)n1)CN(C(=O)CCN)C2 [Example 29, (S)-1-(4-(6-(3-aminopropanoyl)-2-(3-methylmorpholino)-6,7-dihydro-5H-pyrrolo[3,4-d]pyrimidin-4-yl)phenyl)-3-cyclopropylurea]",10 to 100,> 100,10 to 100,10 to 100,10 to 100,1 to 10
"C[C@H]1COCCN1c1nc2c(c(-c3ccc(NC(=O)NC4CC4)cc3)n1)CN(C(=O)CCCN)C2 [Example 30, (S)-1-(4-(6-(4-aminobutanoyl)-2-(3-methylmorpholino)-6,7-dihydro-5H-pyrrolo[3,4-d]pyrimidin-4-yl)phenyl)-3-cyclopropylurea]",10 to 100,> 100,> 100,10 to 100,10 to 100,1 to 10
"COCCC(=O)N1Cc2nc(N3CCOC[C@@H]3C)nc(-c3ccc(NC(=O)NC4CC4)cc3)c2C1 [Example 31, (S)-1-cyclopropyl-3-(4-(6-(3-methoxypropanoyl)-2-(3-methylmorpholino)-6,7-dihydro-5H-pyrrolo[3,4-d]pyrimidin-4-yl)phenyl)urea]",10 to 100,> 100,> 100,10 to 100,> 100,0.1 to 1
"C[C@H]1COCCN1c1nc2c(c(-c3ccc(NC(=O)NC4CC4)cc3)n1)CN(C(=O)CCCN(C)C)C2 [Example 32, (S)-1-cyclopropyl-3-(4-(6-(4-(dimethylamino)butanoyl)-2-(3-methylmorpholino)-6,7-dihydro-5H-pyrrolo[3,4-d]pyrimidin-4-yl)phenyl)urea]",10 to 100,10 to 100,10 to 100,1 to 10,> 100,1 to 10
"C[C@H]1COCCN1c1nc2c(c(-c3ccc(NC(=O)NC4CC4)cc3)n1)CN(C(=O)C1CCCO1)C2 (stereo partly drawn) [Example 33, 1-cyclopropyl-3-(4-(2-((S)-3-methylmorpholino)-6-(tetrahydrofuran-2-carbonyl)-6,7-dihydro-5H-pyrrolo[3,4-d]pyrimidin-4-yl)phenyl)urea]",10 to 100,> 100,> 100,10 to 100,> 100,1 to 10
"C[C@H]1COCCN1c1nc2c(c(-c3ccc(NC(=O)NC4CC4)cc3)n1)CN(S(=O)(=O)C1CC1)C2 [Example 35, (S)-1-cyclopropyl-3-(4-(6-(cyclopropylsulfonyl)-2-(3-methylmorpholino)-6,7-dihydro-5H-pyrrolo[3,4-d]pyrimidin-4-yl)phenyl)urea]",> 100,> 100,> 100,> 100,> 100,1 to 10
"C[C@H]1COCCN1c1nc2c(c(-c3ccc(NC(=O)NC4CC4)cc3)n1)CN(C(=O)C1CCOC1)C2 (stereo partly drawn) [Example 40, 1-cyclopropyl-3-(4-(2-((S)-3-methylmorpholino)-6-(tetrahydrofuran-3-carbonyl)-6,7-dihydro-5H-pyrrolo[3,4-d]pyrimidin-4-yl)phenyl)urea 2,2,2-trifluoroacetate]",10 to 100,> 100,> 100,10 to 100,10 to 100,1 to 10

# Second part, the compound after the results:
IC50 (PI3Kδ) [µM],IC50 [1] [µM],IC50 (PI3Kγ) [µM],IC50 (PI3Kβ) [µM],IC50 (PI3Kα) [µM],IC50 (mTOR) [µM],SMILES
10 to 100,> 100,10 to 100,10 to 100,10 to 100,0.1 to 1,"CC(C)N1Cc2nc(N3CCOC[C@@H]3C)nc(-c3ccc(NC(=O)NCCO)cc3)c2C1 [Example 34, (S)-1-(2-hydroxyethyl)-3-(4-(6-isopropyl-2-(3-methylmorpholino)-6,7-dihydro-5H-pyrrolo[3,4-d]pyrimidin-4-yl)phenyl)urea 2,2,2-trifluoroacetate]"
10 to 100,> 100,1 to 10,10 to 100,10 to 100,0.1 to 1,"C[C@H]1COCCN1c1nc2c(c(-c3ccc(NC(=O)NCCO)cc3)n1)CN(S(C)(=O)=O)C2 [Example 36, (S)-1-(2-hydroxyethyl)-3-(4-(2-(3-methylmorpholino)-6-(methylsulfonyl)-6,7-dihydro-5H-pyrrolo[3,4-d]pyrimidin-4-yl)phenyl)urea]"
10 to 100,10 to 100,10 to 100,10 to 100,1 to 10,0.1 to 1,"CCNC(=O)N1Cc2nc(N3CCOC[C@@H]3C)nc(-c3ccc(NC(=O)NCCO)cc3)c2C1 [Example 37, (S)—N-ethyl-4-(4-(3-(2-hydroxyethyl)ureido)phenyl)-2-(3-methylmorpholino)-5H-pyrrolo[3,4-d]pyrimidine-6(7H)-carboxamide]"
> 100,> 100,> 100,> 100,> 100,1 to 10,"C[C@H]1COCCN1c1nc2c(c(-c3ccc(NC(=O)NCCO)cc3)n1)CN(C1CCCCC1)C2 [Example 38, (S)-1-(4-(6-cyclohexyl-2-(3-methylmorpholino)-6,7-dihydro-5H-pyrrolo[3,4-d]pyrimidin-4-yl)phenyl)-3-(2-hydroxyethyl)urea]"
1 to 10,10 to 100,10 to 100,10 to 100,10 to 100,0.1 to 1,"CC(=O)N1Cc2nc(N3CCOC[C@@H]3C)nc(-c3ccc(NC(=O)NCCO)cc3)c2C1 [Example 39, (S)-1-(4-(6-acetyl-2-(3-methylmorpholino)-6,7-dihydro-5H-pyrrolo[3,4-d]pyrimidin-4-yl)phenyl)-3-(2-hydroxyethyl)urea]"
